Like-named read-outs stand apart in the source and are kept apart here. Starred links: 1 amine or outer side, 2 acyl side, 3 side chain; linkers in the order of their positions; H or OH if unused. Positions of bridges follow the written chain, without caps; N, C: chain ends. Non-standard residues stand in square brackets, D forms with d. Residues, ends and D or L forms follow the SMILES beside them. *: point of attachment. Arg(Nω,Nω'-propylene) = N[C@@H](CCCNC1=NCCCN1)C(=O)O; Orn(2-imidazolinyl) = N[C@@H](CCCNC1=NCCN1)C(=O)O; dαMeDab = C[C@](CCN[*:3])(N[*:1])C(=O)[*:2]; dPhg(4-F) = N[C@@H](C(=O)O)c1ccc(F)cc1; dPhg(2-F) = N[C@@H](C(=O)O)c1ccccc1F; dPhg = N[C@@H](C(=O)O)c1ccccc1; Pyridin(2-yl) = c1ccc(*)nc1; Isobutyryl = CC(C)C(=O)*; Orn = NCCC[C@H](N)C(=O)O; Nva = CCC[C@H](N)C(=O)O; Abu = CC[C@H](N)C(=O)O
What was measured:
WDR5 = molecular target: T1, WDR5 (Homo sapiens, UniProt P61964); experiment: fluorescence polarization (FP) based competitive binding assay to WDR5 protein
T1 construct: N-terminal His-tagged WDR5 protein (residues 24-334), named WDR5Δ23; made in house; host or cells: E. coli Rosetta 2 (DE3)
Procedure: The plates were incubated at room temperature on a shaker for 3h, and then the mP values were measured using the Tecan Infinite M-1000 plate reader (Tecan U.S., Research Triangle Park, N.C.).

[1] = tested on: MOLM-13 leukemia cells carrying MLL-AF9 fusion; experiment: cell viability assay (WST-8), MOLM-13; assay type: cell-based; conditions: Homo sapiens, MOLM-13, 96 h, read-out: MOLM-13 IC50 (μM)
[2] = amide bond, 14-membered ring, HATU/DIEA, DMF, with chain assembly

Row | Compound | IC50 (WDR5) [nM] | Ki (WDR5) [nM] | IC50 [1] [µM] | other results
1 | CC[C@@H]1NC(=O)[C@H](CCCN/C(=N\C)NC)NC(=O)[C@](C)(NC(=O)C(C)C)CC=CCNC(=O)[C@@H](c2ccccc2)NC1=O | – | – | – | ring closure, yield after HPLC (from (R)—N-((8S,11S,14R,Z)-11-ethyl-3-(methylamino)-9,12,15-trioxo-14-phenyl-2,4,10,13,16-pentaazanonadeca-2,18-dien-8-yl)-2-isobutyramido-2-methylpent-4-enamide, rcm bond, 16-membered ring, Hoveyda-Grubbs II (0.5 eq), CH2Cl2, 25.0 °C, 3 steps): 27%
2 | N-((3R,6S,9S,12R)-6-ethyl-9-(3-guanidinopropyl)-12-methyl-2,5,8,11-tetraoxo-3-phenyl-1,4,7,10-tetraazacyclopentadecan-12-yl)isobutyramide | – | – | – | ring closure, yield after HPLC (amide bond, 15-membered ring, HATU/DIEA, DMF, with chain assembly): 19.4%
3 | N-((3R,6S,9S,12R)-6-ethyl-12-methyl-2,5,8,11-tetraoxo-3-phenyl-9-(3-ureidopropyl)-1,4,7,10-tetraazacyclotetradecan-12-yl)isobutyramide | – | – | – | ring closure, yield after HPLC [2]: 6%
4 | N-((3R,6S,9S,12R)-6-ethyl-9-(3-guanidinopropyl)-2,5,8,11-tetraoxo-3-phenyl-1,4,7,10-tetraazacyclohexadecan-12-yl)isobutyramide | – | – | – | ring closure, yield after HPLC (amide bond, 16-membered ring, HATU/DIEA, DMF, 5.0 mM, with chain assembly): 12.7%
5 | N-((3S,6S,9S,12R)-6-ethyl-12-methyl-9-(3-(3-methylguanidino)propyl)-2,5,8,11-tetraoxo-3-phenyl-1,4,7,10-tetraazacyclotetradecan-12-yl)isobutyramide | – | – | – | ring closure, yield after HPLC [2]: 7%
6 | CC[C@@H]1NC(=O)[C@H](CCCNC(=N)N)NC(=O)[C@](C)(NC(=O)C(C)C)CCNC(=O)[C@@H](c2ccc(OC)cc2)NC1=O [Cpd. No. 93, N-((3R,6S,9S,12R)-6-ethyl-9-(3-guanidinopropyl)-3-(4-methoxyphenyl)-12-methyl-2,5,8,11-tetraoxo-1,4,7,10-tetraazacyclotetradecan-12-yl)isobutyramide] | 1.79 | < 1 | 0.083 | –
7 | N-((3R,6S,12R)-9-(3-amino-3-oxopropyl)-6-ethyl-12-methyl-2,5,8,11-tetraoxo-3-phenyl-1,4,7,10-tetraazacyclotetradecan-12-yl)isobutyramide | – | – | – | ring closure, yield after HPLC [2]: 17%
8 | CC[C@@H]1NC(=O)[C@H](CCCNC(=N)N)NC(=O)[C@](C)(NC(=O)C(C)C)CCNC(=O)[C@@H](c2cccc(F)c2)NC1=O [Cpd. No. 80, N-((3R,6S,9S,12R)-6-ethyl-3-(3-fluorophenyl)-9-(3-guanidinopropyl)-12-methyl-2,5,8,11-tetraoxo-1,4,7,10-tetraazacyclotetradecan-12-yl)isobutyramide] | 2.87 | < 1 | 0.42 | –
9 | CC[C@@H]1NC(=O)[C@H](CCCNC(=N)NS(=O)(=O)c2c(C)c(C)c3c(c2C)CC(C)(C)O3)NC(=O)[C@](C)(NC(=O)C(C)C)CC=CCN(C)C(=O)[C@@H](c2ccc(Cl)cc2)NC1=O | – | – | – | ring closure, yield after HPLC (from (R)—N-((6S,9S,12R)-12-(4-chlorophenyl)-9-ethyl-1-imino-14-methyl-7,10,13-trioxo-1-(2,2,4,6,7-pentamethyl-2,3-dihydrobenzofuran-5-sulfonamido)-2,8,11,14-tetraazaheptadec-16-en-6-yl)-2-isobutyramido-2-methylpent-4-enamide, rcm bond, 16-membered ring, Hoveyda-Grubbs II (0.5+0.5 eq), CH2Cl2, 45.0 °C, 3 steps): 11%
10 | CC[C@@H]1NC(=O)[C@H](CCCNC(=N)NS(=O)(=O)c2c(C)c(C)c3c(c2C)CC(C)(C)O3)NC(=O)[C@](C)(NC(=O)C(C)C)CC=CCCCNC(=O)[C@@H](c2ccccc2)NC1=O | – | – | – | ring closure, yield after HPLC (from iPrCO-(R)-αMe-allylGly-Arg(Pbf)-Abu-dPhg-NH-(pent-4-enyl)?, rcm bond, 18-membered ring, Hoveyda-Grubbs II (0.5 eq), CH2Cl2, 25.0 °C, 3 steps): 46%
11 | CC[C@@H]1NC(=O)[C@H](CCCNC(=N)NS(=O)(=O)c2c(C)c(C)c3c(c2C)CC(C)(C)O3)NC(=O)[C@](C)(NC(=O)C(C)C)CC=CCN(C)C(=O)[C@@H](c2ccc(F)cc2)NC1=O | – | – | – | ring closure, yield after HPLC (from (R)—N-((6S,9S,12R)-9-ethyl-12-(4-fluorophenyl)-1-imino-14-methyl-7,10,13-trioxo-1-(2,2,4,6,7-pentamethyl-2,3-dihydrobenzofuran-5-sulfonamido)-2,8,11,14-tetraazaheptadec-16-en-6-yl)-2-isobutyramido-2-methylpent-4-enamide, rcm bond, 16-membered ring, Hoveyda-Grubbs II (0.5+0.5 eq), CH2Cl2, 45.0 °C, 3 steps): 11%
12 | CCC[C@@H]1NC(=O)[C@H](CCCNC(=N)N)NC(=O)[C@](C)(NC(=O)C(C)C)CCNC(=O)[C@@H](c2ccccc2)NC1=O [Cpd. No. 88, N-((3R,6S,9S,12R)-9-(3-guanidinopropyl)-12-methyl-2,5,8,11-tetraoxo-3-phenyl-6-propyl-1,4,7,10-tetraazacyclotetradecan-12-yl)isobutyramide] (Isobutyryl-[dαMeDab]R[Nva][dPhg]; lactam 1-C) | 2.38 | < 1 | 6.33 | –
13 | CC[C@@H]1NC(=O)[C@H](CCCNC(=N)NC(C)=O)NC(=O)[C@](C)(NC(=O)C(C)C)CCNC(=O)[C@@H](c2ccccc2)NC1=O [Cpd. No. 91, N-((3R,6S,9S,12R)-9-(3-(3-acetylguanidino)propyl)-6-ethyl-12-methyl-2,5,8,11-tetraoxo-3-phenyl-1,4,7,10-tetraazacyclotetradecan-12-yl)isobutyramide] (Isobutyryl-[dαMeDab]R(Ac)[Abu][dPhg]; lactam 1-C) | 3.65 | < 1 | 0.47 | –
14 | CC[C@@H]1NC(=O)[C@H](CCCNC(=N)N)NC(=O)[C@](C)(NC(=O)C(C)C)CCNC(=O)[C@@H](c2cccc(OC)c2)NC1=O [Cpd. No. 94, N-((3R,6S,9S,12R)-6-ethyl-9-(3-guanidinopropyl)-3-(3-methoxyphenyl)-12-methyl-2,5,8,11-tetraoxo-1,4,7,10-tetraazacyclotetradecan-12-yl)isobutyramide] | 4 | < 1 | 0.56 | –
15 | CC[C@@H]1NC(=O)[C@H](CCCNC2=NCCCN2)NC(=O)[C@](C)(NC(=O)C(C)C)CCNC(=O)[C@@H](c2ccc3ccccc3c2)NC1=O [Cpd. No. 98, N-((3R,6S,9S,12R)-6-ethyl-12-methyl-3-(naphthalen-2-yl)-2,5,8,11-tetraoxo-9-(3-((1,4,5,6-tetrahydropyrimidin-2-yl)amino)propyl)-1,4,7,10-tetraazacyclotetradecan-12-yl)isobutyramide] | 2.54 | < 1 | 0.039 | –
16 | CC(C)C(=O)N[C@]1(C)CCNC(=O)[C@@H](c2ccccc2)NC(=O)[C@H](C(C)C)NC(=O)[C@H](CCCNC(=N)N)NC1=O [Cpd. No. 89, N-((3R,6S,9S,12R)-9-(3-guanidinopropyl)-6-isopropyl-12-methyl-2,5,8,11-tetraoxo-3-phenyl-1,4,7,10-tetraazacyclotetradecan-12-yl)isobutyramide] (Isobutyryl-[dαMeDab]RV[dPhg]; lactam 1-C) | 1.83 | < 1 | > 10 | –
17 | CC[C@@H]1NC(=O)[C@H](CCCNC2=NCCCN2)NC(=O)[C@](C)(NC(=O)C(C)C)CCNC(=O)[C@@H](c2ccccc2)NC1=O [Cpd. No. 92, N-((3R,6S,9S,12R)-6-ethyl-12-methyl-2,5,8,11-tetraoxo-3-phenyl-9-(3-((1,4,5,6-tetrahydropyrimidin-2-yl)amino)propyl)-1,4,7,10-tetraazacyclotetradecan-12-yl)isobutyramide] (Isobutyryl-[dαMeDab][Arg(Nω,Nω'-propylene)][Abu][dPhg]; lactam 1-C) | 1.86 | < 1 | 0.033 | –
18 | CC[C@@H]1NC(=O)[C@H](CCCNC2=NCCN2)NC(=O)[C@](C)(NC(=O)C(C)C)CCNC(=O)[C@@H](c2ccccc2)NC1=O [Cpd. No. 17, N-((3R,6S,9S,12R)-9-(3-((4,5-dihydro-1H-imidazol-2-yl)amino)propyl)-6-ethyl-12-methyl-2,5,8,11-tetraoxo-3-phenyl-1,4,7,10-tetraazacyclotetradecan-12-yl)isobutyramide] (Isobutyryl-[dαMeDab][Orn(2-imidazolinyl)][Abu][dPhg]; lactam 1-C) | 2.4 | < 1 | 0.088 | –
19 | CC[C@@H]1NC(=O)[C@H](CCCNC(=N)N)NC(=O)[C@](C)(NC(=O)C(C)C)CCNC(=O)[C@@H](c2cccc(Cl)c2)NC1=O [Cpd. No. 84, N-((3R,6S,9S,12R)-3-(3-chlorophenyl)-6-ethyl-9-(3-guanidinopropyl)-12-methyl-2,5,8,11-tetraoxo-1,4,7,10-tetraazacyclotetradecan-12-yl)isobutyramide] | 1.48 | < 1 | 0.51 | –
20 | CC[C@@H]1NC(=O)[C@H](CCCNC(=N)N)NC(=O)[C@](C)(NC(=O)C(C)C)CCNC(=O)[C@@H](c2ccc(F)cc2)NC1=O [Cpd. No. 53, N-((3R,6S,9S,12R)-6-ethyl-3-(4-fluorophenyl)-9-(3-guanidinopropyl)-12-methyl-2,5,8,11-tetraoxo-1,4,7,10-tetraazacyclotetradecan-12-yl)isobutyramide] (Isobutyryl-[dαMeDab]R[Abu][dPhg(4-F)]; lactam 1-C) | 0.878 | < 1 | 0.38 | –
21 | CC[C@@H]1NC(=O)[C@H](CCCNC(=N)N)NC(=O)[C@](C)(NC(=O)C(C)C)CCNC(=O)[C@@H](c2ccccc2F)NC1=O [Cpd. No. 79, N-((3R,6S,9S,12R)-6-ethyl-3-(2-fluorophenyl)-9-(3-guanidinopropyl)-12-methyl-2,5,8,11-tetraoxo-1,4,7,10-tetraazacyclotetradecan-12-yl)isobutyramide] (Isobutyryl-[dαMeDab]R[Abu][dPhg(2-F)]; lactam 1-C) | 0.32 | < 1 | 0.35 | –
22 | CC[C@@H]1NC(=O)[C@H](CCCNc2ccccn2)NC(=O)[C@](C)(NC(=O)C(C)C)CCNC(=O)[C@@H](c2ccccc2)NC1=O [Cpd. No. 12, N-((3R,6S,9S,12R)-6-ethyl-12-methyl-2,5,8,11-tetraoxo-3-phenyl-9-(3-(pyridin-2-ylamino)propyl)-1,4,7,10-tetraazacyclotetradecan-12-yl)isobutyramide] (Isobutyryl-[dαMeDab][Orn](Pyridin(2-yl))[Abu][dPhg]; lactam 1-C) | 3.25 | < 1 | > 10 | –
